Measurements from patent US20060111289A1, “Compositions and methods of using Alpha-fetoprotein growth inhibitory peptides” (Serometrix, LLC,, priority 2004, published 2006).
Where a SMILES comes first, the peptide text is derived from it.

Assays:
[1] = system: 6WI-1 mammary tumor cells; assay: Mouse ascites mammary tumor assay (6WI-1 isograft); type: in vivo
Method: The growth suppression of the mammary ascites tumor by AFP peptides and its fragments P149a, P149b and P149c, and control peptides were determined in non-estrogen dependent assays which measured tumor cell growth and ascites accumulation of 6WI-1 mammary transplanted NYLAR/nya mice. […] Tumor cell inocula included doses of 0.3, 1.0, and 3.0×10^6 cells which produced host mortality at 12-14 days which was lethal in 100% of the animals. Following peptide dose titration studies, mice inoculated with 6WI-1 mammary cells were injected with a previously-determined optimal dose of 1.0 μg peptide per day or saline for 11 days. On day 12 following inoculation, the total accumulated ascites fluid volume and tumor cells in the peritoneal cavity of each animal were harvested and the cell count determined.
Inoculation of mice with all three cell doses led to an increase in body weight from 25 g (day 0) to approximately […] by day 12, due to the accumulation of tumor cells and ascites fluid in the intraperitoneal cavity. An average cell count in accumulated ascites fluid on day 12 was greater than 10^8 cells/ml with a total ascites volume approximating 20 mls. Tumor cell proliferation in this model has been reported to correlate with the volume of ascites fluid accumulated.
The 6WI-1 mouse mammary tumor studies involving peptide and non-peptide treatment were further compared by histopathological analysis performed on hematoxylin/eosin stained tissue sections.

[2] = system: MCF-7 cells; assay: Estrogen-dependent MCF-7 foci formation assay; type: cell-based, human; parameters: % Inhibition Of Activity: MCF-7 foci formation: concentration or dose not given beside the values
Source text: Mizejewski et al., “Alpha-fetoprotein derived synthetic peptides: assay of an estrogen-modifying regulatory segment” Mol Cell Endocrinol 118:15-23 (1996). The P149 peptide inhibited the formation of tumor cell foci formed as a result of the accumulation of breast cancer cells which clump together due to loss of contact inhibition.

[3] = system: immature mouse uterine growth; assay: E2-activated immature mouse uterine growth assay; type: in vivo; parameters: % Inhibition Of Activity: Uterine Growth: concentration or dose not given beside the values; details: for Inhibition in the mouse uterine assay: linear versus cyclic configuration
Method: FIG. 3 presents exemplary data showing the growth suppressive activities of the oligomeric forms of P149, cyclic versus linear, are depicted in various in vitro and in vivo models. Biological activity was determined by three growth-dependent bioassays, namely; • Panel-A and A1) an immature rodent uterine bioassay; • Panel-B and B 1) an in vitro MCF-7 foci assay; • Panel-C and C1) an in vitro tumor cell cytostatic assessment. […] See text for details. Scrambled peptide=P327. […]

[4] = system: MCF-7 and 6WI-1 tumor cells; assay: Tumor cell adhesion to ECM proteins in microtiter plates; type: cell-based, human, murine
Method: FIG. 8 presents exemplary data showing the inhibition of P149 in the cellular adhesion of cancer cells to extracellular matrix (ECM) proteins for both human MCF-7 breast cancer cells and for murine 6WI-1 ascites-adapted mammary tumor cells. The cellular adhesion assay was performed in 96-well microtiter plates (Nunc Company, Denmark, catalog #263339) and the wells were pre-coated with 100 microliters of each of the above-mentioned ECM proteins for 24 hours as previously determined. After adding tumor cells, the plates were then incubated at 37° C. for various times; while 6WI-1 cells usually required only 2-4 hours incubation for adhesion; MCF-7 cells required 24 hours for attachment following trypsinization. For both cell lines, the cell culture media contained 5% calf serum to ensure cell attachment. The plates were washed twice with Hank's Saline, fixed in 0.5 mL of 37% formaldehyde, stained with crystal violet and read at […] on a microplate reader. Inset: Using a CyQUANT® stain kit, (Hoechst Corp., Germany) the plates were first exposed to a freeze/thaw cycle at −70° C. for 24 hours and 37° C. for 10 minutes. CyQUANT® buffer solution (150 microliters) was added to each well, and the cell adhesion was measured by fluorescence spectroscopy and quantitated using an ImageQuant® plate scanner (Fluorimager 595, Molecular Dynamics, Sunnyvale, Calif.).
This attachment of GIP was a slightly weaker adhesion matrix than was gelatin, chondroitin sulfate, and poly-lysine which approximated 30-35%. Using P149, the optimal amount of peptide required to inhibit tumor cell adhesion was determined by absorbing soluble peptide (1.0 pg to 100 μg) to the walls of microtiter plates. A constant number of MCF-7 tumor cells (i.e., for example, 1×10^5) were then added to the microtiter well and adhesion quantitated by fluorescence. […] The quantitation of MCF-7 and 6WI-1 cell adhesion in the presence of peptide versus peptide-free media was then determined on ECM-coated microtiter plates using 3 μg GIP/well as a competitive inhibitor. The P149 peptide was added to the wells immediately after the cells were dispensed and then the mixture was incubated as described. The AFP peptide was capable of cell adhesion inhibition in most of the ECM proteins in both tumor cell lines. Inhibition of mouse and human tumor cell adhesion was somewhat equivalent using collagen IV, fibrinogen, fibronectin, and thrombospondin. […] Thus, the GIP was found capable of eliciting different attachment inhibitions dependent on the type of ECM protein coating the wall of the microtiter plate and also the tumor cell type involved.

[5] = Estrogen fetotoxicity; parameters: concentration or dose not given beside the values; details: in vivo
[6] = system: human kidney tumor cell line
[7] = 6WI-1 mouse mammary ascites tumor

Molecule | % Inhibition Of Activity: 6WI-1 Acites Volume [1, 7] [%] | % Inhibition Of Activity: 6WI-1 Body Weight [1, 7] [%] | % Inhibition Of Activity: 6WI-1 Cell Prol [1, 7] [%] | % Inhibition Of Activity: 6WI-1 Peptide Combos ([1]; peptide combination) [%] | % Inhibition Of Activity: MCF-7 foci formation [2] [%] | % Inhibition Of Activity: Uterine Growth ([3]; mouse, in vivo) [%] | % Inhibition Of Activity: Cell Adhesion [4] [%] | % Inhibition Of Activity: Estrogen Fetotoxicty [5] [%] | % Inhibition Of Activity: Kidney tumor growth [6] [%] | Inhibition in the MCF-7 foci-assay ([2]; linear versus cyclic configuration) | Inhibition in the mouse uterine assay [3] | Inhibition in the mouse uterine assay ([3]; listed as cyclic peptide)
KDFIHKQGVALQTMKQELINLVKELVKPQIEAVADFSGLL (listed as Homo sapiens) [P192, reference compound] | 0 | 0 | 0 | 0 | 0 | 0 | 0 | 0 | 0 | – | – | –
CC[C@H](C)[C@H](NC(=O)[C@@H]1CSSC[C@H](NC(=O)[C@H](C)NC(=O)[C@H](CC(C)C)NC(=O)[C@H](CC(C)C)NC(=O)[C@H](CCCCN)NC(=O)[C@H](CC(=O)O)NC(=O)[C@H](CCC(=O)O)NC(=O)[C@H](CO)NC(=O)[C@@H](N)CC(C)C)C(=O)NCC(=O)N[C@@H](CCC(=O)O)C(=O)NCC(=O)N[C@@H](C)C(=O)N[C@@H](C)C(=O)N[C@@H](CC(=O)O)C(=O)N[C@@H]([C@@H](C)CC)C(=O)N[C@@H]([C@@H](C)CC)C(=O)N[C@@H]([C@@H](C)CC)C(=O)NCC(=O)N[C@@H](Cc2c[nH]cn2)C(=O)N[C@@H](CC(C)C)C(=O)N1)C(=O)N[C@@H](CCCNC(=N)N)C(=O)N[C@@H](Cc1c[nH]cn1)C(=O)N[C@@H](CCC(=O)O)C(=O)N[C@@H](CCSC)C(=O)N[C@H](C(=O)N1CCC[C@H]1C(=O)N[C@H](C(=O)N[C@@H](CC(N)=O)C(=O)N1CCC[C@H]1C(=O)NCC(=O)N[C@H](C(=O)O)C(C)C)C(C)C)[C@@H](C)O [Cyclic GIP] (HELM PEPTIDE1{L.S.E.D.K.L.L.A.C.G.E.G.A.A.D.I.I.I.G.H.L.C.I.R.H.E.M.T.P.V.N.P.G.V}$PEPTIDE1,PEPTIDE1,9:R3-22:R3$$$V2.0; N-terminus and C-terminus assumed) | – | – | – | – | – | – | – | – | – | 20-25% | 20-25% | only marginally inhibitory
